Measured values taken from patent US12576070B2, “Medicine for improving state of pregnancy, and use thereof” (priority 2014, dated 2026).
“Also recorded” adds a separate entry of the source.

Assays:
[1] = test system: infertilitas patients with three or more consecutive miscarriages, stillbirths, or intrauterine fetal growth retardations; test: Tacrolimus treatment of infertilitas patients from establishment of pregnancy until delivery (Example 2); format: in vivo, human
Protocol: These patients were a group of patients for whom clear findings of abnormality related to infertility were not recognized with a serological examination that had been performed in advance.
The patients were evaluated through a transvaginal ultrasound examination, a Fallopian tube patency test, and hysteroscopy before an index ART cycle. Among the participants, no one had submucosal myoma, endometrial polyps, intrauterine adhesion, congenital abnormalities in the uterus, or hydrosalpinx. […] Any women who had experienced miscarriage in the previous IVF cycle, who had received an IVF cycle, or who had received vaccination, all within three months, were excluded from the subjects. Any women with acquired or congenital thrombophilia were excluded from the subjects.
The analysis was carried out according to the method described in Example 1. However, the determination of the Th1/Th2 cell ratio in a patient was carried out immediately after establishment of pregnancy (the day of confirming establishment of pregnancy). The level of the Th1/Th2 cell ratio was determined according to the average value+1 standard deviation method in the same manner as in Example 1, and a Th1/Th2 cell ratio that was equal to 10.3 or higher than that was classified as an increased Th1/Th2 cell ratio.
All of the eleven patients were subjected to treatment with tacrolimus in the same manner as in Example 1, except for the duration of administration. […] The duration of administration of tacrolimus was from the time point immediately after establishment of pregnancy was confirmed by a pregnancy test and the Th1/Th2 cell ratio was checked, until the day of delivery, in all cases.
The treatment was carried out in the same manner as in Example 1.
The analysis was carried out in the same manner as in Example 1.

[2] = test system: repeated implantation failure (RIF) patients with elevated Th1/Th2 cell ratios; test: Tacrolimus treatment of repeated implantation failure (RIF) patients during IVF/ET, prospective cohort study (Example 1); format: in vivo, human
Protocol: This was a prospective cohort study of treatment for RIF patients (n=42) with elevated peripheral blood Th1 (CD4^+/IFN-γ^+)/Th2 (CD4^+/IL-4^+) cell ratios at the Sugiyama clinic between November 2011 and October 2013. Twenty-five patients were treated with tacrolimus (treatment group) and 17 received no treatment (control group).
Treatment group continuously received tacrolimus from two days before embryo transfer until the day of the pregnancy test, for a total of 16 days. The daily dose of tacrolimus (1-3 mg) was determined based on the degree of the Th1/Th2 cell ratio.
A total of 81 patients with a history of 5 or more RIF after IVF/ET cycles were consecutively enrolled in the study at the division of Reproductive Medicine, the Sugiyama clinic, Tokyo, Japan, between November 2011 and February 2014. This study was approved by the Institutional Review Board of the Sugiyama Clinic. A signed informed consent form was obtained from all patients prior to entering the study.
Study patients were assessed by transvaginal ultrasound, hysterosalpingography, and hysteroscopy before the index ART cycle. None of the participants had submucosal fibroids, endometrial polyps, intrauterine adhesions, congenital anomalies of uterus or hydrosalpinges. In addition, none of the women had any history of autoimmune disease. Pregnant women or women with chronic medical or inflammatory conditions were excluded. Women who miscarried in a former IVF cycle or had IVF cycles, or received vaccination in 3 months were excluded in the study. Women with acquired or inherited thrombophilia were also excluded in this study.
Blood was drawn between cycle day (CD) 5 and 10 prior to the index ART cycle for the evaluation of a baseline value of Th1/Th2 cell ratios. Forty-two patients had elevated Th1/Th2 cell ratio (≥10.3) and 39 had normal Th1/Th2 cell ratio (≤10.3). […] Blood was drawn between CD5 and CD10 of the menstrual cycle. A Th1/Th2 cell ratio equal to 10.3 or above was classified as an elevated Th1/Th2 cell ratio, which was determined by the mean plus one standard deviation of Th1/Th2 cell ratio levels.
For the evaluation of a baseline value of Th1/Th2 cell ratios, total 10 ml of venous blood was obtained. Th1 and Th2 cells were determined by detecting the intracellular interferon (IFN)-γ and IL-4 production.
The specific staining of lymphocytes was performed by incubating whole blood with anti-CD4-PC5 or anti-CD8-PC5-conjugated monoclonal antibodies (mAbs) (Beckman Coulter, Fullerton, Calif, USA). The red blood cells (RBCS) were then removed by lysis (FACS Lysing solution; Becton Dickinson, BD Biosciences, Franklin Lake. N.J., USA) and the lymphocytes were analyzed using flow cytometry (FACSCalibur; Becton Dickson). After surface staining of the activated whole blood samples with anti-CD4-PC5 conjugated mAbs, RBC lysis and specific intracellular staining using FASTIMMUNE™ IFN-γ-FITC/IL-4-PE (Becton Dickinson) were subsequently performed according to the manufacturer's instructions. Th1 cells were defined as CD4^+ lymphocytes with intracellular IFN-γ but without IL-4. Th2 cells were detected as CD4^+ lymphocytes with intracellular IL-4 but without IFN-γ. The ratio of IFN-γ to IL-4 positive Th cells was expressed as the Th1/Th2 cell ratio.
In 42 patients with elevated Th1/Th2 cytokine ratios (equal or above 10.3), 25 of them were treated with tacrolimus (PROGRAF®, Astellas Pharma, Tokyo; treatment group), and the others (n=17) were not treated (control group) during the index IVF/ET cycles. The patients in the treatment group began tacrolimus two days prior to ET and continued until the day of pregnancy test, for a total of 16 days. […]

[3] = infertilitas patients n = 11, tacrolimus 1-3 mg per day from confirmation of pregnancy until delivery
[4] = 1 mg daily, n = 12, Th1/Th2 cell ratio ≥10.3 and <13.0
[5] = 2 mg daily, n = 8, Th1/Th2 cell ratio ≥13.0 and <15.8
[6] = 3 mg daily, n = 5, Th1/Th2 cell ratio ≥15.8
[7] = treatment group n = 25, tacrolimus 1-3 mg daily for 16 days
[8] = treatment group, 15 newborns, mean ± standard deviation
[9] = treatment group, 15 newborns, mean ± standard deviation, listed as tacrorimus

C=CCC1/C=C(\C)CC(C)CC(OC)C2OC(O)(C(=O)C(=O)N3CCCCC3C(=O)OC(/C(C)=C/C3CCC(O)C(OC)C3)C(C)C(O)CC1=O)C(C)CC2OC (stereo not shown) [tacrolimus, 17-Allyl-1,14-dihydroxy-12-[2-(4-hydroxy-3-methoxycyclohexyl)-1-methylvinyl]-23,2 5-dimethoxy-13,19,21,27-tetramethyl-11,28-dioxa-4-azatricyclo[22.3.1.04,9]octacos-18-ene-2,3,10,16-tetraone]
APGAR Score 1 minute ([1]; Full term birth (8 babies)): 8.0 ± 1.0
APGAR Score 5 minute ([1]; Full term birth (8 babies)): 9.0 ± 0.5
Birth weight (gm) ([1]; Full term birth (8 babies)): 3149 ± 234 gm
Complications of mother ([1]; Full term birth (8 babies)): 0
Complications of newborn baby ([1]; Full term birth (8 babies)): 0
Number of gestational days ([1]; Full term birth (8 babies)): 279.3 ± 6.0 days
Umbilical cord blood pH ([1]; Full term birth (8 babies)): 7.3 ± 0.12
APGAR Score 1 minute ([1]; Premature birth case): 6
APGAR Score 5 minute ([1]; Premature birth case): 8
Birth weight (gm) ([1]; Premature birth case): 748 gm
Number of gestational days ([1]; Premature birth case): 208 days
Umbilical cord blood pH ([1]; Premature birth case): 7.304
Complications of newborn baby ([1]; Premature birth case, Low birth weight baby): 1 (Low birth
Complications of mother ([1]; Premature birth case, Pregnancy-induced hypertension): 1 (Pregnancy-
Number of newborn babies (n): Miscarriage [1, 3]: 2 n
Number of newborn babies (n): Premature birth [1, 3]: 1 n
Clinical pregnancy with 1 mg of tacrolimus (%) [2, 4]: 83.3%
Live birth with 1 mg of tacrolimus (%) [2, 4]: 83.3%
Clinical pregnancy With 2 mg of tacrolimus [2, 5]: 50.0%
Live birth With 2 mg of tacrolimus [2, 5]: 37.5%
Clinical pregnancy with 3 mg of tacrolimus [2, 6]: 40.0%
Live birth with 3 mg of tacrolimus [2, 6]: 40.0%
FET success rate relative to reported success rate (39%) of women under 35 ([2]; FET cycle with tacrolimus, 75% versus 2011 CDC report 39%): 1.9 times
Positive hCG (%) ([2]; RIF patients with elevated Th1/Th2 cell ratio, treatment group n = 25, tacrolimus 1-3 mg daily for 16 days from two days before ET): 64%
birth weight (mean±SD) ([2]; newborns of the treatment group, as given in the text): 2,995±400 g
Spontaneous abortion rate (%) ([2]; pregnant patients of the treatment group, one miscarriage at 10 weeks gestation): 6.3%
Side effect from tacrolimus ([2]; treatment group n = 25, 1-3 mg daily for 16 days): no significant side effect; also recorded: no one reported side effect
Clinical pregnancy rate per ET (%) [2, 7]: 64.0%
Live birth rate (%) [2, 7]: 60%
Implantation rate (%) ([2]; treatment group n = 25, tacrolimus 1-3 mg daily for 16 days from two days before ET, 16/35): 45.7%
APGAR score at 1 minutes after birth [2, 8]: 8.3±0.5
APGAR score at 5 minutes after birth [2, 8]: 9.2±0.5
Gestational days to delivery [2, 8]: 279.5 ± 10.6 days
Umbilical cord gas analysis (pH) [2, 8]: 7.2 ± 0.05 pH
Birth weight (gm) ([2]; treatment group, 15 newborns, mean ± standard deviation (Table 4)): 3,021 ± 371 gm
APGAR score at 1 minutes after birth [2, 9]: 8.3 ± 0.5
APGAR score at 5 minutes after birth [2, 9]: 9.2 ± 0.6
Gestational days to delivery [2, 9]: 279.5 ± 10.6 days
Live birth rate of fresh ET (%) ([2]; treatment group, fresh ET (n = 9)): 33.3%
Clinical pregnancy of fresh ET (%) ([2]; treatment group, fresh ET (n = 9), tacrolimus 1-3 mg daily for 16 days): 44.4%
Live birth rate of thawed ET (%) ([2]; treatment group, frozen-thawed ET (n = 16)): 75%
Clinical pregnancy of cryo-thaw ET (%) ([2]; treatment group, frozen-thawed ET (n = 16), tacrolimus 1-3 mg daily for 16 days): 75%
Number of newborns ([2]; women with multiple implantation failures (5 or more) treated with tacrolimus): 15
